“And” between values parts separate entries of the source, which are not always exact repeats. Identical values can stand only once. Inconclusive results and toxic doses are left out. Cut-off read from the data, not from the text of the source: active = T/C of 150% or more; inactive = T/C below 125%.
Tested on: L1210 leukemia ip in BDF1 mice, survival T/C
Test: NCI In Vivo Anticancer Drug Screen. Data for tumor model L1210 Leukemia (intraperitoneal) in B6D2F1 (BDF1) mice
Conditions: endpoint: mean survival time, higher = longer survival
Method in brief: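 Mice bearing the transplanted tumor received compound or vehicle. Survival of the treated group was divided by that of the vehicle-treated control group to give the ratio.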

[1] = dose: 100.0 mg/kg/injection, schedule: Q01DX009 (ip), vehicle: saline
[2] = dose: 100.0 mg/kg/injection, schedule: Q04DX003 (ip), vehicle: saline
[3] = dose: 200.0 mg/kg/injection, schedule: Q01DX009 (ip), vehicle: saline
[4] = dose: 200.0 mg/kg/injection, schedule: Q04DX003 (ip), vehicle: saline
[5] = dose: 400.0 mg/kg/injection, schedule: Q01DX009 (ip), vehicle: saline
[6] = dose: 400.0 mg/kg/injection, schedule: Q04DX003 (ip), vehicle: saline
[7] = dose: 12.5 mg/kg/injection, schedule: Q04DX003 (ip), vehicle: saline
[8] = dose: 25.0 mg/kg/injection, schedule: Q04DX003 (ip), vehicle: saline
[9] = dose: 100.0 mg/kg/injection, schedule: Q04DX002 (ip), vehicle: Klucel (hydroxypropylcellulose) (HPC)
[10] = dose: 200.0 mg/kg/injection, schedule: Q04DX002 (ip), vehicle: Klucel (hydroxypropylcellulose) (HPC)
[11] = dose: 400.0 mg/kg/injection, schedule: Q04DX002 (ip), vehicle: Klucel (hydroxypropylcellulose) (HPC)
[12] = dose: 100.0 mg/kg/injection, schedule: Q01DX001 (ip), vehicle: carboxymethylcellulose (CMC)
[13] = dose: 200.0 mg/kg/injection, schedule: Q01DX001 (ip), vehicle: carboxymethylcellulose (CMC)
[14] = dose: 50.0 mg/kg/injection, schedule: Q01DX001 (ip), vehicle: saline
[15] = dose: 100.0 mg/kg/injection, schedule: Q01DX001 (ip), vehicle: saline
[16] = dose: 200.0 mg/kg/injection, schedule: Q01DX001 (ip), vehicle: saline
[17] = dose: 400.0 mg/kg/injection, schedule: Q01DX001 (ip), vehicle: saline
[18] = dose: 100.0 mg/kg/injection, schedule: Q04DX002 (ip), vehicle: saline with Tween-80
[19] = dose: 200.0 mg/kg/injection, schedule: Q04DX002 (ip), vehicle: saline with Tween-80
[20] = dose: 100.0 mg/kg/injection, schedule: Q04DX003 (ip), vehicle: saline with Tween-80
[21] = dose: 200.0 mg/kg/injection, schedule: Q04DX003 (ip), vehicle: saline with Tween-80

Measured: T/C

COC(=O)CC(O)C(=O)OC (stereo not given)
inactive: [1] 102 % of control | [2] 109 % of control | [3] 93 % of control | [4] 104 % of control | [5] 96 % of control | [6] 110 % of control

c1ccc(Cc2cccc[n+]2Cc2ccccc2)cc1
inactive: [7] 102 % of control | [8] 105 % of control

Oc1ccccc1/C=N/Sc1ccccc1.Oc1ccccc1/C=N/Sc1ccccc1.[Ni+2]
inactive: [9] 94 % of control | [10] 94 % of control | [11] 105 % of control

O=c1cc(CSCCO)[nH]c(=O)[nH]1
inactive: [2] 102 % of control | [4] 96 % of control | [6] 104 % of control

C(=C/c1ccccc1)/C[P+](c1ccccc1)(c1ccccc1)c1ccccc1
inactive: dose: 1.25 mg/kg/injection, schedule: Q01DX009 (ip), vehicle: saline with Tween-80 97 % of control | dose: 2.5 mg/kg/injection, schedule: Q01DX009 (ip), vehicle: saline with Tween-80 94 % of control | dose: 5.0 mg/kg/injection, schedule: Q01DX009 (ip), vehicle: saline with Tween-80 98 % of control | dose: 5.0 mg/kg/injection, schedule: Q04DX003 (ip), vehicle: saline with Tween-80 98 % of control | dose: 10.0 mg/kg/injection, schedule: Q04DX003 (ip), vehicle: saline with Tween-80 86 % of control | dose: 20.0 mg/kg/injection, schedule: Q04DX003 (ip), vehicle: saline with Tween-80 90 % of control

S=C(NC1CC2C=CC1C2)N1CCCCC1 (stereo not given)
inactive: dose: 50.0 mg/kg/injection, schedule: Q01DX009 (ip), vehicle: saline with Tween-80 106 % of control | dose: 100.0 mg/kg/injection, schedule: Q01DX009 (ip), vehicle: saline with Tween-80 100 % of control | dose: 200.0 mg/kg/injection, schedule: Q01DX009 (ip), vehicle: saline with Tween-80 95 % of control

C/C(=N\NC(=O)c1ccc([N+](=O)[O-])cc1)c1ccccc1
inactive: [12] 87 % of control | [13] 87 % of control

COc1ccc(/C=N\NC(=O)CCCC(=O)N/N=C/c2ccc(OC)c(OC)c2)cc1OC
inactive: [14] 100 % of control | [15] 100 % of control | [16] 93 % of control | [17] 100 % of control

CCCCN(C)CC#N
inactive: dose: 6.25 mg/kg/injection, schedule: Q01DX009 (ip), vehicle: saline with Tween-80 102 % of control | dose: 12.5 mg/kg/injection, schedule: Q01DX009 (ip), vehicle: saline with Tween-80 96 % of control | dose: 12.5 mg/kg/injection, schedule: Q04DX003 (ip), vehicle: saline with Tween-80 94 % of control | dose: 25.0 mg/kg/injection, schedule: Q01DX009 (ip), vehicle: saline with Tween-80 104 % of control | dose: 25.0 mg/kg/injection, schedule: Q04DX003 (ip), vehicle: saline with Tween-80 94 % of control

N#CC1SCCCS1
inactive: dose: 50.0 mg/kg/injection, schedule: Q01DX001 (ip), vehicle: Klucel (hydroxypropylcellulose) (HPC) 104 % of control | dose: 100.0 mg/kg/injection, schedule: Q01DX001 (ip), vehicle: Klucel (hydroxypropylcellulose) (HPC) 105 % of control | [18] 101 % of control | dose: 200.0 mg/kg/injection, schedule: Q01DX001 (ip), vehicle: Klucel (hydroxypropylcellulose) (HPC) 96 % of control | [19] 108 % of control | dose: 400.0 mg/kg/injection, schedule: Q04DX002 (ip), vehicle: saline with Tween-80 108 % of control

CC1OCCCCO1
inactive: [14] 106 % of control | [15] 102 % of control | [1] 96 % of control and 112 % of control | dose: 100.0 mg/kg/injection, schedule: Q04DX002 (ip), vehicle: saline 108 % of control and 86 % of control | [16] 103 % of control | [3] 102 % of control and 108 % of control | dose: 200.0 mg/kg/injection, schedule: Q04DX002 (ip), vehicle: saline 93 % of control and 100 % of control | [5] 98 % of control and 112 % of control | dose: 400.0 mg/kg/injection, schedule: Q04DX002 (ip), vehicle: saline 93 % of control and 95 % of control

O=c1ccn(CCC(COCc2ccccc2)COCc2ccccc2)c(=O)[nH]1
inactive: dose: 100.0 mg/kg/injection, schedule: Q04DX003 (ip), vehicle: Klucel (hydroxypropylcellulose) (HPC) 96 % of control | dose: 200.0 mg/kg/injection, schedule: Q04DX003 (ip), vehicle: Klucel (hydroxypropylcellulose) (HPC) 101 % of control | dose: 400.0 mg/kg/injection, schedule: Q04DX003 (ip), vehicle: Klucel (hydroxypropylcellulose) (HPC) 101 % of control

CC1CC([O-])=N/[N+]1=C/c1ccc(N(C)C)cc1 (stereo not given)
inactive: dose: 80.0 mg/kg/injection, schedule: Q01DX001 (ip), vehicle: saline with Tween-80 98 % of control | dose: 160.0 mg/kg/injection, schedule: Q01DX001 (ip), vehicle: saline with Tween-80 98 % of control | dose: 320.0 mg/kg/injection, schedule: Q01DX001 (ip), vehicle: saline with Tween-80 92 % of control

C[P+](c1ccc(Cl)cc1)(c1ccc(Cl)cc1)c1ccc(Cl)cc1
inactive: dose: 6.25 mg/kg/injection, schedule: Q04DX003 (ip), vehicle: saline 114 % of control | [7] 109 % of control | [8] 102 % of control

Cn1nc(NC(=O)C(C)(C)C)c(C#N)c1C#N
inactive: dose: 50.0 mg/kg/injection, schedule: Q04DX002 (ip), vehicle: saline with Tween-80 95 % of control | [18] 95 % of control | [19] 98 % of control

Cc1ccc(C(=O)n2c(Cl)c(C=O)c3ccccc32)cc1
inactive: dose: 50.0 mg/kg/injection, schedule: Q04DX002 (ip), vehicle: Klucel (hydroxypropylcellulose) (HPC) 94 % of control | [9] 97 % of control | [10] 94 % of control

NC(=S)N/N=C/c1[nH]c(=O)[nH]c(=O)c1Br
inactive: dose: 100.0 mg/kg/injection, schedule: Q01DX001 (ip), vehicle: saline with Tween-80 93 % of control | dose: 200.0 mg/kg/injection, schedule: Q01DX001 (ip), vehicle: saline with Tween-80 97 % of control | dose: 400.0 mg/kg/injection, schedule: Q01DX001 (ip), vehicle: saline with Tween-80 103 % of control

NC(=S)NCCO
inactive: [2] 105 % of control | [4] 98 % of control | [6] 100 % of control

CCOC(=O)CCCCCC(C(=O)OCC)c1nc2ccccc2[nH]c1=O (stereo not given)
inactive: [9] 99 % of control | [10] 101 % of control | [11] 86 % of control

Nc1[nH]c(=O)[nH]c(=O)c1N=Nc1ccc(S(=O)(=O)Nc2ccccn2)cc1
inactive: [15] 98 % of control | [16] 96 % of control | [17] 104 % of control

O/N=C1/CCN2CCCc3cccc1c32
inactive: [20] 94 % of control | [21] 97 % of control

COc1ccc(Nc2ccc([N+](=O)[O-])cc2[N+](=O)[O-])cc1
inactive: [20] 96 % of control | [21] 94 % of control | dose: 400.0 mg/kg/injection, schedule: Q04DX003 (ip), vehicle: saline with Tween-80 91 % of control

COc1cc(/C=N\NC(=O)c2cccc(Cl)c2)ccc1N(CCCl)CCCl
inactive: dose: 50.0 mg/kg/injection, schedule: Q01DX001 (ip), vehicle: carboxymethylcellulose (CMC) 100 % of control | [12] 103 % of control | [13] 105 % of control | dose: 400.0 mg/kg/injection, schedule: Q01DX001 (ip), vehicle: carboxymethylcellulose (CMC) 103 % of control

— PubChem BioAssay AID248 (DTP/NCI, 2004)
